Test results published in the OPERA property sets (Mansouri et al. 2018).

Compound CCCCC[N+](=O)[O-] has a logP of 2.01.

Compound O=C(Nc1ccccc1)Oc1ccccc1 has a logP of 3.3.

CCN(CC)CCNc1ccc(C)c(Cl)c1 showed a logP of 4.14.

With O=C(NCc1ccc(O)cc1)c1ccccc1 the logP was 1.87.

CC(=O)c1ccc(F)cc1 showed a logP of 1.72.

FC(F)F gave a logP of 0.64.

FC(F)(F)Oc1ccccc1 showed a logP of 3.17.

COc1ccc(CC#N)cc1 showed a logP of 1.7.

For CC(=O)Nc1cccc2ncccc12, the logP was 0.71.

Cc1ccc(S(I)=C(N(C)C)N(C)C)cc1 (centres undefined) gave a logP of -0.1.

NC(=S)c1ccccc1 showed a logP of 1.49.

For O=Cc1ccc([N+](=O)[O-])cc1, the logP was 1.56.

C=C(C)C(=O)OCC(C)C showed a logP of 2.66.

In the case of Nc1cccc([N+](=O)[O-])c1, the logP is reported as 1.37.

With CC(C)N(C(=O)CCl)c1ccccc1 the logP was 2.18.

CCOC(=O)c1cccc([N+](=O)[O-])c1 showed a logP of 2.35.

For CCCCCCCCBr, the logP was 4.89.

Compound CCSC(=O)N1CCCCCC1 has a logP of 3.21.

For CC(=O)c1ccccn1, the logP was 0.85.

For COc1cccc(C=C(C(N)=O)C(N)=O)c1, the logP was 0.01.

For CCOc1ccc(CC(=O)O)cc1, the logP was 1.95.

CCOC(=O)c1ccc([N+](=O)[O-])cc1 gave a logP of 2.33.

CC(=O)Nc1ccc(F)cc1 showed a logP of 1.47.

Work on NC(=O)Nc1ccc(Br)cc1 yielded a logP of 1.98.

Work on Cc1ccccc1NS(=O)(=O)c1ccc(N)cc1 yielded a logP of 2.03.

With Nc1cccc2cccnc12 the logP was 1.79.

CC(=O)c1ccc(Br)cc1 showed a logP of 2.43.

For C[Si](C)(C)c1ccccc1, the logP was 4.72.

Compound CN(C)CCOC(=O)c1ccc(C#N)cc1 has a logP of 1.43.

Work on Oc1c(Cl)ccc(Cl)c1Cl yielded a logP of 3.77.

C#Cc1ccccc1 gave a logP of 2.53.

Work on Nc1cccc(Br)c1 yielded a logP of 2.1.

With CS(=O)(=O)Nc1ccccc1 the logP was 0.95.

Work on CN(C)CCN1c2ccccc2Sc2ccccc21 yielded a logP of 4.2.

Work on Oc1ccccc1-c1ccccc1 yielded a logP of 3.09.

Work on CNC(=O)Oc1ccc(C(C)C)cc1 yielded a logP of 2.57.

NCCCCc1ccccn1 showed a logP of 0.86.

In the case of CCOP(=S)(NC(C)C)Oc1ccccc1C(=O)OC(C)C (centres undefined), the logP is reported as 4.12.

With CCNc1nc(NCC)nc(SC(F)F)n1 the logP was 3.28.

In the case of CN(C)CCCNC(=O)c1ccccc1, the logP is reported as 1.27.

In the case of N#Cc1ccc(C(=O)O)cc1, the logP is reported as 1.56.

For OCCN1CCN(CCCC2c3ccc(F)cc3Sc3ccc(C(F)(F)F)cc32)CC1 (centres undefined), the logP was 4.47.

For COc1ccc(C=C(C(C)=O)C(C)=O)c(OC)c1, the logP was 1.88.

In the case of COc1ccccc1C(=O)NCCN(C)C, the logP is reported as 1.14.

For CON(C)C(=O)Nc1cccc([N+](=O)[O-])c1, the logP was 1.64.

In the case of Clc1cccc(-c2cccc(Cl)c2Cl)c1, the logP is reported as 5.57.

Compound O=NN(CCCl)C(=O)NC1C(O)OC(CO)C(O)C1O (centres undefined) has a logP of -1.02.

Compound C=C1C(=O)OC2C1CCC(C)C1C=CC(=O)C12C (centres undefined) has a logP of 1.03.

In the case of CCSc1ccc2c(c1)N(CCCN1CCN(C)CC1)c1ccccc1S2, the logP is reported as 5.41.

COC(=O)CCCC(=O)OC gave a logP of 0.62.

For Cc1ccc(C=C(C#N)C#N)cc1, the logP was 2.4.

For COc1ccc(S(I)=C(N(C)C)N(C)C)cc1 (centres undefined), the logP was -0.51.

Compound Nc1ccc([N+](=O)[O-])cc1N has a logP of 0.88.

Work on CCCCc1cccc(OCC(=O)O)c1 yielded a logP of 3.18.

CC[N+](=O)[O-] showed a logP of 0.18.

For CC1=CC(=O)C=C(Br)C1=O, the logP was 1.21.

With COc1ccc(N(C)C)cc1 the logP was 1.42.

In the case of NC(=O)Nc1cccc2cccnc12, the logP is reported as 1.62.

CCCCCOC(=O)c1ccc(N)cc1 showed a logP of 3.48.

Work on NC(=O)Oc1ccccc1 yielded a logP of 1.08.

With CCCCOc1ccc(C(=O)O)cc1 the logP was 3.57.

In the case of OCCCl, the logP is reported as 0.03.

Work on CCCOc1cn[nH]c1 yielded a logP of 1.42.

Compound CCCCOC(=O)Oc1cccc(C2(C(=O)CC)CCN(C)CC2)c1 has a logP of 2.42.

CCOC(=O)C(F)F showed a logP of 0.87.

Compound CCCCF has a logP of 2.58.

In the case of CCC1(c2ccccc2)C(=O)NC(=O)N(C)C1=O (centres undefined), the logP is reported as 1.84.

With CCOc1cccc(O)c1 the logP was 1.98.

For CN(C)C(=O)Oc1ccccc1[N+](=O)[O-], the logP was 1.35.

For CCCc1ccncc1, the logP was 2.1.

For Nc1ccc(F)cc1F, the logP was 1.54.

Compound COc1ccc(OCC(=O)NNC(C)C)cc1 has a logP of 1.21.

In the case of CCCCC(C)=O, the logP is reported as 1.38.

Compound c1ccc2c(c1)-c1cccc3cccc-2c13 has a logP of 5.16.

Compound CC(=O)Nc1ccccc1[N+](=O)[O-] has a logP of 1.

For CC(C)NNC(=O)COc1ccc(Cl)cc1, the logP was 2.02.

For NC(=O)C1CCCN1C(=O)C(Cc1cn(C(=O)OCc2ccccc2)cn1)NC(=O)C1CCC(=O)N1 (centres undefined), the logP was -0.11.

O=C(NP(=O)(N1CC1)N1CC1)c1cccc(I)c1 showed a logP of 1.91.

For COc1ccc(C(O)C(C(=O)O)c2ccc(-c3ccccc3)cc2)cc1 (centres undefined), the logP was 3.59.

Work on CCCC[Si](C)(C)C yielded a logP of 4.2.

Cl[C@H]1[C@H](Cl)[C@@H](Cl)[C@@H](Cl)[C@H](Cl)[C@H]1Cl (racemic) gave a logP of 3.72.

In the case of Cc1cccc(C)c1, the logP is reported as 3.2.

Work on COP(=S)(OC)Oc1ccc([N+](=O)[O-])c(C(C)C)c1 yielded a logP of 4.05.

CNC(=O)Oc1cccc(C(C)C)c1 showed a logP of 2.63.

For C=CC=C, the logP was 1.99.

For CN(N=O)C(=O)NC1C(O)OC(CO)C(O)C1O (centres undefined), the logP was -1.45.

In the case of CCCCCCOC(=O)c1ccc(O)cc1, the logP is reported as 4.35.

N#Cc1cccc(C#N)c1 showed a logP of 0.8.

C=C(Br)CC1(C(C)C)C(=O)NC(=O)NC1=O showed a logP of 1.47.

For CCOC(=O)C(C)NC(=O)CCCCSc1ncnc2nc[nH]c12 (centres undefined), the logP was 1.51.

Work on CC=Cc1ccccc1 yielded a logP of 3.35.

With CC(C)(C)C#N the logP was 1.08.

Compound CNC1=CC(=O)c2ccccc2C1=O has a logP of 1.74.

For c1cscn1, the logP was 0.44.

For CCCCCCCN, the logP was 2.57.

In the case of COc1cc([C@@H]2c3cc4c(cc3C(O[C@@H]3O[C@@H]5CO[C@@H](C)O[C@H]5[C@H](O)[C@H]3O)C3COC(=O)[C@@H]32)OCO4)cc(OC)c1O (some centres undefined), the logP is reported as 0.6.

Work on CCOC(=O)c1ccccc1N yielded a logP of 2.57.

With CCCCCCC(=O)NN the logP was 0.97.

For CCC(C)N(C(=O)SCc1ccccc1)C(C)CC (centres undefined), the logP was 4.4.

In the case of CC1(C)Oc2c(O)cccc2C1=O, the logP is reported as 1.87.

In the case of CCS(=O)(=O)CC, the logP is reported as -0.59.

C[Si](C)(C)c1ccc(O)cc1 gave a logP of 3.84.

With O=c1[nH]cc(Cl)c(=O)[nH]1 the logP was -0.35.

Work on NC1=CC(=O)c2ccccc2C1=O yielded a logP of 1.77.

N#Cc1ccc2cc[nH]c2c1 gave a logP of 2.38.

Compound C=CCBr has a logP of 1.79.

For COc1cccc(C(=O)O)c1, the logP was 2.02.

Work on Nc1cccc(CO)c1 yielded a logP of -0.05.

Nc1ccc(Cl)cc1N gave a logP of 1.28.

In the case of Nc1ccc(Cl)cc1C(=O)O, the logP is reported as 1.57.

Compound Oc1ccccc1Br has a logP of 2.35.

In the case of NC(=O)C(c1ccccc1)c1ccccn1 (centres undefined), the logP is reported as 0.83.

c1ccc(P(c2ccccc2)c2ccccc2)cc1 gave a logP of 5.69.

C1COCO1 showed a logP of -0.37.

For CCCNCCC, the logP was 1.67.

O=C(c1ccccc1)c1cccnc1 gave a logP of 1.88.

CNC(=O)C1C(C)CC2C3CCC4=CC(=O)C=CC4(C)C3(F)C(O)CC21C (centres undefined) gave a logP of 1.54.

With CC(C)NCC(O)COc1cccc2[nH]c3ccccc3c12 (centres undefined) the logP was 3.59.

CCOC(=O)c1ccc(O)cc1 showed a logP of 2.47.

In the case of CC(C)c1ccc(C(N)=O)cc1, the logP is reported as 2.14.

For COc1ccc2c(c1)N(C[C@H](C)CN(C)C)c1ccccc1S2, the logP was 4.68.

In the case of S=C=Nc1ccc(Br)cc1, the logP is reported as 4.03.

OC(c1ccc(Cl)cc1)(c1ccc(Cl)cc1)C1CC1 showed a logP of 5.5.

CC1(O)CC23C(O)C1CCC2(O)C(C)(O)C1C2OC2C(C)(C)C1(O)C(O)C3O (centres undefined) gave a logP of -0.57.
